Laboratory results published in patent publication US7829560B2, “1,4-disubstituted naphthalenes as inhibitors of P38 MAP kinase” (Arqule, Inc., priority 2004, dated 2010).

Legend:
[1] = test system: TNFα release from THP-1 cells; experiment: Inhibition of TNFα release from LPS-stimulated THP-1 cells, ELISA; type: cell-based; conditions: Homo sapiens, THP-1, THP-1 cells, read-out: [CELL] THP-1, IC50, TNF ALPHA, ELISA
How it was run: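 Human THP-1 monocytes, 10^6 cells/ml in RPMI with 10% FBS, no serum or 1% HSA, preincubated 30 min at 37 °C with compound (≤0.5% DMSO), then stimulated with 10 μg/ml LPS for 18 h. Supernatant TNFα measured by ELISA; IC50 from non-linear dose-response regression.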

[2] = molecular target: T1, p38α (Homo sapiens, UniProt Q16539); experiment: p38 MAP Kinase assay: inhibition of ATF2 phosphorylation, ELISA; type: biochemical; conditions: ATF2 phosphorylation; read-out: [ENZ] P38 ALPHA, IC50, ELISA
T1 construct: p38 MAP Kinases are recombinant human full-length proteins with an amino-terminal GST fusion; GST (N); purchased Upstate Biotechnology Inc; host or cells: E. coli
T1 sequence (Q16539 whole entry, the tested form may be a part): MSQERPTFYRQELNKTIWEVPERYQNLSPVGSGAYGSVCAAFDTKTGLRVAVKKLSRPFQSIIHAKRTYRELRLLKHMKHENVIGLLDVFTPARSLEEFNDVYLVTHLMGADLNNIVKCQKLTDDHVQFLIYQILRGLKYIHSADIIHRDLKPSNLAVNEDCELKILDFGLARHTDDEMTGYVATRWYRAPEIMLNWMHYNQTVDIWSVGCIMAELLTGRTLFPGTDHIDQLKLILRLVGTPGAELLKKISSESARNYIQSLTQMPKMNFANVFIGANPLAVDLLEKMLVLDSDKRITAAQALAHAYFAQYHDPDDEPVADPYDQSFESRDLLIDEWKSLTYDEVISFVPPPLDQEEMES
How it was run: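 GST-tagged full-length human p38 MAP kinase with GST-ATF2 (aa 19–96; 1.25 μM) and 40 μM ATP in HEPES pH 7.5 buffer, without (Method I) or with (Method II) 1% human serum albumin. Compound pre-incubated 15 min at room temperature; reaction 30 min at 37 °C; ATF2 Thr69 phosphorylation measured by ELISA (A450).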

| Structure (SMILES) | IC50 [1] [µM] | IC50 [2] [µM] | melting point [°C] |
| --- | --- | --- | --- |
| O=C(Nc1ccc(OCCCN2CCCC2=O)c2ccccc12)c1cc(F)cc(N2CCCCC2)c1 [Compound B182, 3-Fluoro-N-{4-[3-(2-oxopyrrolidin-1-yl)propoxy]-1-naphthyl}-5-piperidin-1-ylbenzamide] | > 10 | 0.587 | 88 to 89 |
| CN(C)[C@@H]1CCN(c2nccc(Oc3ccc(NC(=O)c4cc(F)cc(N5CCOCC5)c4)c4ccccc34)n2)C1 [Compound B342, N-[4-({2-[(3R)-3-(dimethylamino)pyrrolidin-1-yl]pyrimidin-4-yl}oxy)-1-naphthyl]-3-fluoro-5-morpholin-4-ylbenzamide] | 0.0615 | 0.0223 | 115 to 117 |
| COc1nccc(Oc2ccc(NC(=O)c3cc(F)cc(N4CCOCC4)c3)c3ccccc23)n1 [Compound B267, 3-Fluoro-N-{4-[(2-methoxypyrimidin-4-yl)oxy]-1-naphthyl}-5-morpholin-4-ylbenzamide] | 0.0292 | 0.0569 | 216 to 217 |
| COc1ccc(CCOc2ccc(NC(=O)c3cc(F)cc(N4CCOCC4)c3)c3ccccc23)cc1OC [Compound B189, N-{4-[2-(3,4-Dimethoxyphenyl)ethoxy]-1-naphthyl}-3-fluoro-5-morpholin-4-ylbenzamide] | 2.61 | 0.441 | 73 to 75 |
| O=C(Nc1ccc(OCc2ccncc2)c2ccccc12)c1cc(F)cc(N2CCCCC2)c1 [Compound B230, 3-Fluoro-5-piperidin-1-yl-N-[4-(pyridin-4-ylmethoxy)-1-naphthyl]benzamide] | 0.63 | 0.0257 | 69 to 71 |
| CN(CC1OCCO1)c1nccc(Oc2ccc(NC(=O)c3cc(F)cc(N4CCCCC4)c3)c3ccccc23)n1 [Compound B395, N-[4-({2-[(1,3-Dioxolan-2-ylmethyl)(methyl)amino]pyrimidin-4-yl}oxy)-1-naphthyl]-3-fluoro-5-piperidin-1-ylbenzamide] | 0.212 | 0.0313 | 125 to 127 |
| O=C(Nc1ccc(Oc2ccnc(N3CCOCC3)n2)c2ccccc12)c1cc(F)cc(N2CCOCC2)c1 [Compound B248, 3-Fluoro-5-morpholin-4-yl-N-{4-[(2-morpholin-4-ylpyrimidin-4-yl)oxy]-1-naphthyl}benzamide] | 0.157 | 0.0466 | 104 to 106 |
| CCOC(=O)N1CCC(Nc2nccc(Oc3ccc(NC(=O)c4cc(F)cc(N5CCOCC5)c4)c4ccccc34)n2)CC1 [Compound B341, Ethyl-4-{[4-({4-[(3-fluoro-5-morpholin-4-ylbenzoyl)amino]-1-naphthyl}oxy)pyrimidin-2-yl]amino}piperidine-1-carboxylate] | 0.59 | 0.0105 | 122 to 124 |

The remaining compounds from weak to strong by IC50 [1], led by results:

| IC50 [1] [µM] | IC50 [2] [µM] | melting point [°C] | Structure (SMILES) |
| --- | --- | --- | --- |
| 1.37 | 0.519 | 173 to 175 | CS(=O)(=O)c1nccc(Oc2ccc(NC(=O)c3cc(F)cc(N4CCOCC4)c3)c3ccccc23)n1 [Compound B268, 3-Fluoro-N-(4-{[2-(methylsulfonyl)pyrimidin-4-yl]oxy}-1-naphthyl)-5-morpholin-4-ylbenzamide] |
| 0.275 | 0.0271 | 92 to 94 | COC(CN(C)c1nccc(Oc2ccc(NC(=O)c3cc(F)cc(N4CCOCC4)c3)c3ccccc23)n1)OC [Compound B351, N-[4-({2-[(2,2-Dimethoxyethyl)(methyl)amino]pyrimidin-4-yl}oxy)-1-naphthyl]-3-fluoro-5-morpholin-4-ylbenzamide] |
| 0.149 | 0.0044 | 195 to 197 | CN1CCN(c2nccc(Oc3ccc(NC(=O)c4cc(F)cc(N5CCOCC5)c4)c4ccccc34)n2)CC1 [Compound B328, 3-Fluoro-N-(4-{[2-(4-methylpiperazin-1-yl)pyrimidin-4-yl]oxy}-1-naphthyl)-5-morpholin-4-ylbenzamide] |
| 0.136 | 0.0152 | 98 to 100 | O=C(Nc1ccc(Oc2ccnc(NCCN3CCCCC3)n2)c2ccccc12)c1cc(F)cc(N2CCOCC2)c1 [Compound B343, 3-Fluoro-5-morpholin-4-yl-N-[4-({2-[(2-piperidin-1-ylethyl)amino]pyrimidin-4-yl}oxy)-1-naphthyl]benzamide] |
| 0.0681 | 0.0095 | 115 to 117 | O=C(Nc1ccc(Oc2ccnc(NC3(CO)CCCC3)n2)c2ccccc12)c1cc(F)cc(N2CCOCC2)c1 [Compound B350, 3-Fluoro-N-{4-[(2-{[1-(hydroxymethyl)cyclopentyl]amino}pyrimidin-4-yl)oxy]-1-naphthyl}-5-morpholin-4-ylbenzamide] |
| 0.0124 | 0.0139 | 121 to 123 | O=C(Nc1ccc(Oc2ccnc(NCc3ccccc3)n2)c2ccccc12)c1cc(F)cc(N2CCOCC2)c1 [Compound B249, N-(4-{[2-(Benzylamino)pyrimidin-4-yl]oxy}-1-naphthyl)-3-fluoro-5-morpholin-4-ylbenzamide] |
